What was measured:
PRDM9 = target: T1, PRDM9 (Homo sapiens, UniProt Q9NQV7); assay: Fluorescence polarization saturation binding of fluorescent probe to PRDM9; conditions: saturation-binding format, mean ± SEM, read-out: Sinefungin Probe 1A Affinity
T1 construct: purchased Cayman
Description: (§1) Sinefungin Probe 1A was tested for the ability to bind to 16 proteins, including several non-methlytransferase protein controls (Table 2). This probe binds to 4 methyltransferases (SET7/9, G9a, GLP, MLL) with Kd values <2 μM.

KMT5c = KMT5c (Homo sapiens, UniProt Q86Y97); assay: Fluorescence polarization saturation binding of fluorescent probe to KMT5c; conditions: saturation-binding format, read-out: Sinefungin Probe 1A Affinity
KMT5c, sequence (Q86Y97 whole entry, species assumed): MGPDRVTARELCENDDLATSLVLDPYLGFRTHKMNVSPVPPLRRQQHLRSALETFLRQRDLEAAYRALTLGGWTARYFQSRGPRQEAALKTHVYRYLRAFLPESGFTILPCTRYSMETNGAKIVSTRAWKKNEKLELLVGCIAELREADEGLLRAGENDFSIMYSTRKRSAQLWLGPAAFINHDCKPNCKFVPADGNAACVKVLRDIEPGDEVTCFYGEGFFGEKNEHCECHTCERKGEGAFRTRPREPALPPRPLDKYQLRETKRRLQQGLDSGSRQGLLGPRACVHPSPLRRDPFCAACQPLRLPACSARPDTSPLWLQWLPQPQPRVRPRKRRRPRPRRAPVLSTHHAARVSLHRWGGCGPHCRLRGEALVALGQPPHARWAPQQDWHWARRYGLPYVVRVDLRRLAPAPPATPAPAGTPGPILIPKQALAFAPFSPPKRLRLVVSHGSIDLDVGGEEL
Description: as §1

DNMT3b = DNMT3b (Homo sapiens, UniProt Q9UBC3); assay: Fluorescence polarization saturation binding of fluorescent probe to DNMT3b; conditions: saturation-binding format, read-out: Sinefungin Probe 1A Affinity
Description: as §1

PRMT4 = target: T2, PRMT4 (Homo sapiens, UniProt Q86X55); assay: Fluorescence polarization saturation binding of fluorescent probe to PRMT4; conditions: saturation-binding format, read-out: Sinefungin Probe 1A Affinity
T2 construct: made in house
T2 sequence (Q86X55 1-608): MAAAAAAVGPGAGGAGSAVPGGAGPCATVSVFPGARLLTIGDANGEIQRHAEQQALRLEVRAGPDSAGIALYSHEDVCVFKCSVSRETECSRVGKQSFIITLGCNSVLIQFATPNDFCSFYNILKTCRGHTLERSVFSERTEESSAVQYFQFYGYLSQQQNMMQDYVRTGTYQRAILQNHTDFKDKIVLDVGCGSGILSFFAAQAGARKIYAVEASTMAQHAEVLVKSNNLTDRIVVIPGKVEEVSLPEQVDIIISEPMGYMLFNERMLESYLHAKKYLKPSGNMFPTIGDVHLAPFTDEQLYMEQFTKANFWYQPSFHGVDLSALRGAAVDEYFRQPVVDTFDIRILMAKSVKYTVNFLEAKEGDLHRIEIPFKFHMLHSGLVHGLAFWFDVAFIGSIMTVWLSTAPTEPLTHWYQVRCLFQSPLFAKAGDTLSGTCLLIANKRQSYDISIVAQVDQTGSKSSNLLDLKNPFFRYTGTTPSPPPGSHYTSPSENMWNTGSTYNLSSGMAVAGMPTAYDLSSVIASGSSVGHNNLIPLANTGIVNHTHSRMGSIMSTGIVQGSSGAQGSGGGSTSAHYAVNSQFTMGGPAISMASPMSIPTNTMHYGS
Description: as §1

Sumo = assay: Fluorescence polarization saturation binding of fluorescent probe to Sumo (control protein); conditions: saturation-binding format, read-out: Sinefungin Probe 1A Affinity
Description: as §1

SET7/9 = target: T3, SET7/9 (Homo sapiens, UniProt Q8WTS6); assay: SET7/9 SAM-Screener high-throughput FP assay, Sinefungin Probe 1A displacement; format: binding; conditions: SET7/9 30 nM, FIG. 10
T3 construct: purchased Cayman 10320
T3 sequence (Q8WTS6 1-366): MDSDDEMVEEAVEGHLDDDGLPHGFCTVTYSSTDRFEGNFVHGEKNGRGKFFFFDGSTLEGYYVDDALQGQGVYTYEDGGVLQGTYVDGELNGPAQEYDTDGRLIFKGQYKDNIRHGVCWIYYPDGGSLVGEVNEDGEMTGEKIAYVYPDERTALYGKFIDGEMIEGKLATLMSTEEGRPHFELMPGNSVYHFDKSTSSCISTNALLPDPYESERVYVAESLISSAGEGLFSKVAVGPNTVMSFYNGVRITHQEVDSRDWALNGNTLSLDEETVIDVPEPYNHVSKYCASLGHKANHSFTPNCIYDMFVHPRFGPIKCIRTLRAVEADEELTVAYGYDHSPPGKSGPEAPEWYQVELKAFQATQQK
Description: Methods: A collection of 14,400 compounds from the Maybridge HitFinder collection of compounds was assayed for the displacement of Sinefungin Probe 1A from SET7/9 in a high-throughput manner using the SET7/9 SAM-Screener FP assay Cayman Catalog Item #600490). Thirty microliters of assay buffer (50 mM Tris pH 8.0, 50 mM KCl, 5 mM CHAPS, 2 mM DTT) was added to every well of a black 384-well polystyrene microtiter plate (Thermo-Fisher 364576). To every well, excluding control wells, was added one microliter of a DMSO solution containing a test compound. Control wells received either 1 μl DMSO or 1 μl of a sinefungin solution. The final concentration of sinefungin control or test compounds in the assay was 50 μM or 10 μM, respectively. To every well of the plate was added 10 μl of a SET7/9 solution to give a final assay concentration of 30 nM. After a 15-minute incubation at ambient temperature, 10 μl of Sinefungin Probe 1A solution was added to every well to give a final assay concentration of 10 nM in a total assay volume of 50 μl Samples were analyzed using a Biotek Synergy H4 plate reader in fluorescence polarization mode after a 30-minute incubation at ambient temperature in the dark. Data were analyzed using GeneData (v. 9.01). […]

MLL = assay: High-throughput FP Sinefungin Probe 1A binding assay adapted for MLL; conditions: MLL 1 μM, FIG. 10
Description: Adaptation for GLP and MLL: Assays for probe binding to two other methyltransferases (GLP and MLL) were also adapted to high throughput format. The assay conditions were identical to the SET7/9 assay, however the protein concentration was increased to raise the signal:noise ratio for the assay. For GLP, the protein concentration was raised to 500 nM, while the concentration of MLL was raised to 1 μM. Data were analyzed in GraphPad Prism (v. 5.04) and/or GeneData (v. 9.01).
This assay was also adapted for high throughput format against the methyltransferase MLL (Cayman Catalog Item #10658). Relevant data are illustrated in FIG. 10: The fluorescence polarization (FP) Sinefungin Probe 1A binding assay was adapted to a high-throughput inhibitor screening format for both A) MLL and B) SET7/9. The probe polarization is increased by >120 mp by binding to SET7/9 (30 nM) and by >145 mp by binding to MLL (1 μM). […] Sixty-four replicates were tested for each condition for SET7/9, sixteen replicates were tested for MLL. Z′ factor scores were >0.5 for all conditions tested (SET7/9:sinefungin: 0.71; SAM: 0.72; no SET7/9: 0.69; MLL:sinefungin: 0.72).

T1 sequence (Q9NQV7 whole entry, species assumed): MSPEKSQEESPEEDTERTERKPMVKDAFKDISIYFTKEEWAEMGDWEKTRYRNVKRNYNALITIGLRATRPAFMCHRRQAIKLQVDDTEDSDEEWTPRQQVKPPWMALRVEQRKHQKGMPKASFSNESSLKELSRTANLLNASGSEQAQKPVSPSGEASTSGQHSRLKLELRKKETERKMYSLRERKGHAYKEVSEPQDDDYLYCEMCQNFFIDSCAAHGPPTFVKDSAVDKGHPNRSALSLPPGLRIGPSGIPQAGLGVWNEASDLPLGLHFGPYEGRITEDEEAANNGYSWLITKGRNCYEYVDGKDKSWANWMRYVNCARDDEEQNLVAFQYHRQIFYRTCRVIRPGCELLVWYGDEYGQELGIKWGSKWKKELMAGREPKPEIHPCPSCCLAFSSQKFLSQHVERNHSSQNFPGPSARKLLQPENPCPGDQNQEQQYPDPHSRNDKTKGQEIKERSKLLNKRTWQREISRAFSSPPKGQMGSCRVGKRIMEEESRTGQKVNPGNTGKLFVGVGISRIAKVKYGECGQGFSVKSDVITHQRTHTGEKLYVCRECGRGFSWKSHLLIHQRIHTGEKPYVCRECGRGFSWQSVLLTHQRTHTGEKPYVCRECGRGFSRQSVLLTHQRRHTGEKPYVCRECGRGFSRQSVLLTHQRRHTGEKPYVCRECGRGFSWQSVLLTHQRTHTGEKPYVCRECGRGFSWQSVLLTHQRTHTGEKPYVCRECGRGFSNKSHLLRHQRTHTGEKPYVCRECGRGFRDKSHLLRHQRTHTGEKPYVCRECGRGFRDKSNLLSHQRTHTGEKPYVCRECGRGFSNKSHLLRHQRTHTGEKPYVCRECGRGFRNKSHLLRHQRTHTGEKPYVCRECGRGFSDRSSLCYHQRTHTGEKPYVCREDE

Kd (PRDM9): 2.6 ± 0.6 µM
Kd (KMT5c): > 2 µM
Kd (DNMT3b): > 2 µM
Kd (PRMT4): > 2 µM
Kd (Sumo): > 10 µM
increase of probe polarization by binding (SET7/9): > 120 mp
increase of probe polarization by binding (MLL): > 145 mp
SMILES: Nc1ncnc2c1ncn2[C@@H]1O[C@H](C[C@@H](N)CC[C@H](N)C(=O)O)[C@@H](OCc2cnnn2CCCCCCNC(=O)OC2CCN(C(=O)c3ccccc3C3=c4cc5c6c(c4Oc4c3cc3c7c4CCCN7CCC3)CCC[N+]=6CCC5)CC2)[C@H]1O [Sinefungin Probe 1A]
